Data taken from paper PMC11537224 (ACS Infectious Diseases, 2024).
Where two headings read alike, the source gives them in different places.

Key:
[1] = system: L. infantum promastigotes; assay: L. infantum promastigotes viability assay; format: cell-based, L. infantum MHOM/TN/80/IPT1; conditions: Leishmania infantum, 72 h, read-out: L. infantum EC50 (μM)
[2] = target: TbTS (Trypanosoma brucei brucei, UniProt Q27783); assay: TbDHFR-TS inhibition assay versus the TS domain; format: biochemical
[3] = target: hTS (Homo sapiens, UniProt P04818); assay: hTS inhibition assay; format: biochemical
hTS, sequence (P04818 whole entry): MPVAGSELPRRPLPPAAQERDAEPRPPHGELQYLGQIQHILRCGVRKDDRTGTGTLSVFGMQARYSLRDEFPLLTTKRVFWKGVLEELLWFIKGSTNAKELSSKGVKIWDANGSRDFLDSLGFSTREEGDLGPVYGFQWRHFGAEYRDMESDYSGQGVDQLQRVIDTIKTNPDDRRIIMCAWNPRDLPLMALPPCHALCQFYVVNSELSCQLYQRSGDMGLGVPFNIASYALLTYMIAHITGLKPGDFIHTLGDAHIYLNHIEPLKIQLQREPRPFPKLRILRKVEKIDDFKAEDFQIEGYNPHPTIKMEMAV

[4] = target: LmDHFR (Leishmania major, UniProt P07382); assay: LmDHFR inhibition assay; format: biochemical, L. major
LmDHFR, sequence (P07382 whole entry): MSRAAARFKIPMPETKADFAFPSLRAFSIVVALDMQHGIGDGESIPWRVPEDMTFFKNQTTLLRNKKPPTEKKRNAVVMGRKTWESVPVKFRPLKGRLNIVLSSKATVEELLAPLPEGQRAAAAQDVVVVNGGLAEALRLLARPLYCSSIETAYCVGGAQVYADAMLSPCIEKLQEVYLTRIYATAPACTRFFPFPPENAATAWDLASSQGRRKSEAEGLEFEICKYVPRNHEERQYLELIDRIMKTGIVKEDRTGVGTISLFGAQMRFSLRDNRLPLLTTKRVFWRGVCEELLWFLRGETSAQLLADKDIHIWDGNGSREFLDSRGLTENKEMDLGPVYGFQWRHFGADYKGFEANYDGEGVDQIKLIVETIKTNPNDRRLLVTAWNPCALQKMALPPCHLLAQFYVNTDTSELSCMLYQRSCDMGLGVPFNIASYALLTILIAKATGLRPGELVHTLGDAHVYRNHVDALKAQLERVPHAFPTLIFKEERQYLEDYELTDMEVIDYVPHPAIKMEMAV

[5] = system: T. brucei bloodstream forms; assay: Activity toward T. brucei bloodstream forms; format: cell-based, T. brucei brucei Lister 427; conditions: for EC50: Trypanosoma brucei, 72 h
[6] = target: TbDHFR (Trypanosoma brucei brucei, UniProt Q27783); assay: biochemical
TbDHFR, sequence (Q27783 whole entry): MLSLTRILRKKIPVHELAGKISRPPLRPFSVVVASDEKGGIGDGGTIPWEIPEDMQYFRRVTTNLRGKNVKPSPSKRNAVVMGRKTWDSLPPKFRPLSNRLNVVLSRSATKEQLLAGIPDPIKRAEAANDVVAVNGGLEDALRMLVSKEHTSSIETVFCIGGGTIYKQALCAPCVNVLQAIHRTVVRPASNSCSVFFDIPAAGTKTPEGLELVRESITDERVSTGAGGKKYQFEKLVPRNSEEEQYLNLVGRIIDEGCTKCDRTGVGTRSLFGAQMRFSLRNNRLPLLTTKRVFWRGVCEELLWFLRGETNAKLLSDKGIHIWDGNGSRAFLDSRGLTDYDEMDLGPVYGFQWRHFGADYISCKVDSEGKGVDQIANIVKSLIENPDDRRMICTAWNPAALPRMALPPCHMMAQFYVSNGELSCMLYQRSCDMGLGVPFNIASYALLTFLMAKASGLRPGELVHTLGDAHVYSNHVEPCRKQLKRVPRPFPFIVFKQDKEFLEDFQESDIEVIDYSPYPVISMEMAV

[7] = target: T1, hDHFR (Homo sapiens, UniProt P00374); assay: biochemical
T1 sequence (P00374 1-187): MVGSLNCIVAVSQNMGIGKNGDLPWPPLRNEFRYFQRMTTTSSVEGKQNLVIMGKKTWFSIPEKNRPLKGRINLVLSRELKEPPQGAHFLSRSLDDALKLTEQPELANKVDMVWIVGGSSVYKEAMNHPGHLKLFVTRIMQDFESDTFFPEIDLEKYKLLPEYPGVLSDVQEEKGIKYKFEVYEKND

[8] = target: T2, TbPTR1 (Trypanosoma brucei brucei, UniProt O76290); assay: TbPTR1 inhibition assay
T2 sequence (O76290 1-268): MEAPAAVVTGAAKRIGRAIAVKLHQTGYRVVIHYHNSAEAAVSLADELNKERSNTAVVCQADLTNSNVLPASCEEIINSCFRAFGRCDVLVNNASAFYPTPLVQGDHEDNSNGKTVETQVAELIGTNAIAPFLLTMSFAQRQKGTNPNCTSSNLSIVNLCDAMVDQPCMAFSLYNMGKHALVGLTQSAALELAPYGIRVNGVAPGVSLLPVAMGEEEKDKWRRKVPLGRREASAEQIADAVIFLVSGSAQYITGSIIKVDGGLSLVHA

[9] = system: T. brucei; conditions: read-out: growth of parasites EC50; mean value from four diverse culture media; cited from earlier work
[10] = system: T. brucei; conditions: read-out: T. brucei EC50; cited from earlier work
[11] = target: TcDHFR (Trypanosoma cruzi, UniProt Q27793); assay: TcDHFR inhibition assay; format: biochemical, T. cruzi
TcDHFR, sequence (Q27793 whole entry): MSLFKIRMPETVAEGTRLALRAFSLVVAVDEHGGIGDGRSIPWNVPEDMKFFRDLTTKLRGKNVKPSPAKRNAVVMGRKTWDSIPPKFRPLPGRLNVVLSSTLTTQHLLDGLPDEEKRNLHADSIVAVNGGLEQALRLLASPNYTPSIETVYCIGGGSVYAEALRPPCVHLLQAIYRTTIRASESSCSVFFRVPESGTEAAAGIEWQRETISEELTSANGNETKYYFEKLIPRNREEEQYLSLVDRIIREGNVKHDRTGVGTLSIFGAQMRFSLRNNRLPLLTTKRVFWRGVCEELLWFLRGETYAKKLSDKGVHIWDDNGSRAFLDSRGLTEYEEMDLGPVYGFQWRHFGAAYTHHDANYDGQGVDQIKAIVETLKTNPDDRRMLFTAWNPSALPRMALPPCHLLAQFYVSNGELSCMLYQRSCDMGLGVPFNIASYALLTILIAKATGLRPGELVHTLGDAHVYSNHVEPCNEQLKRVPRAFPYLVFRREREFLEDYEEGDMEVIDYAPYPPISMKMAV

[12] = read-out: T. brucei EC50 (μM) folate deficiency

TbTS, sequence (Q27783 whole entry, the tested form may be a part): as the sequence (Q27783 whole entry) above

| Ki [3] [µM] | Ki [8] [µM] | EC50 enhancement in folate deficiency medium versus standard medium ([5]; T. brucei, 23.3 μM to 5.4 nM) [fold] | Compound | EC50 [1] [µM] | Ki [2] [µM] | Ki [4] [µM] | EC50 ([5]; read-out: T. brucei EC50 (μM)) [µM] | EC50 [5, 12] [µM] | Ki [6] [µM] | Ki [7] [µM] | EC50 [9] [µM] | EC50 [10] [µM] | Ki [11] [µM] | drop-off in potency TcDHFR versus TbDHFR ([11]; Ki TcDHFR versus Ki TbDHFR) [fold] |
| --- | --- | --- | --- | --- | --- | --- | --- | --- | --- | --- | --- | --- | --- | --- |
| – | – | – | CCCCCCCCCCCCCCCCOP(=O)([O-])OCC[N+](C)(C)C [MLF, miltefosine, reference compound] | 10.9 | – | – | – | – | – | – | – | – | – | – |
| – | – | – | Cc1ccc2nc(N)[nH]c(=O)c2c1Sc1ccncc1 [nolatrexed] | – | – | – | – | – | – | – | ~32 | – | – | – |
| > 500 | 13.3 | – | N=C(N)Nc1nc2ccccc2[nH]1 [2a, 2-Guanidinobenzimidazole] | > 20 | 23.6 | – | > 20 | > 20 | 0.029 | 2.21 | – | – | – | – |
| – | – | 4300 | CN(Cc1cnc2nc(N)nc(N)c2n1)c1ccc(C(=O)N[C@@H](CCC(=O)O)C(=O)O)cc1 [MTX, methotrexate, reference compound] | – | – | – | 23.3 | 0.0054 | – | – | – | – | – | – |
| – | – | – | N=C(N)c1ccc(OCCCCCOc2ccc(C(=N)N)cc2)cc1 [PENT, pentamidine, reference compound] | – | – | – | 0.0041 | – | – | – | – | – | – | – |
| > 500 | 4.94 | – | N=C(N)Nc1nc2cc(Cl)cc(Cl)c2[nH]1 [2d, 4,6-Dichloro-2-guanidinobenzimidazole] | 6.62 | 20.3 | – | 2.91 | 5.97 | 0.113 | 4.36 | – | – | – | – |
| 11.8 | – | – | CCc1nc(N)nc(N)c1-c1ccc(Cl)cc1 [Pyr, pyrimethamine, reference compound] | 99.2 | – | – | 17.3 | 2.08 | – | – | – | – | – | – |
| – | 4.16 | – | CC1(C)N=C(N)N=C(N)N1c1ccc(Cl)cc1 [Cyc, cycloguanil, reference compound] | > 80 | – | – | > 80 | 27.2 | – | – | – | > 25 | – | – |

| Compound | Ki [3] [µM] | Ki [8] [µM] | EC50 enhancement in folate deficiency medium versus standard medium ([5]; T. brucei, 23.3 μM to 5.4 nM) [fold] | EC50 [1] [µM] | Ki [2] [µM] | Ki [4] [µM] | EC50 ([5]; read-out: T. brucei EC50 (μM)) [µM] | EC50 [5, 12] [µM] | Ki [6] [µM] | Ki [7] [µM] | EC50 [9] [µM] | EC50 [10] [µM] | Ki [11] [µM] | drop-off in potency TcDHFR versus TbDHFR ([11]; Ki TcDHFR versus Ki TbDHFR) [fold] |
| --- | --- | --- | --- | --- | --- | --- | --- | --- | --- | --- | --- | --- | --- | --- |
| N=C(N)Nc1nc2cc(Cl)c(Cl)cc2[nH]1 [2c, 5,6-Dichloro-2-guanidinobenzimidazole] | > 500 | 3.23 | – | 22.5 | 50.3 | 1.58 | 7.8 | 6.52 | 0.66 | 1.51 | – | – | – | – |
| Cc1cc2nc(NC(=N)N)[nH]c2cc1C [2g, 5,6-Dimethyl-2-guanidinobenzimidazole] | > 500 | 54 | – | > 20 | 18.2 | 1.04 | 14.5 | 13.8 | 0.009 | 3.55 | – | – | 0.6 | 67 |
